From US10071989B2, “Substituted cinnamamide derivative, preparation method and use thereof” (TASLY PHARMACEUTICAL GROUP CO., LTD., priority 2011, dated 2018)
Entries after “also recorded” stand apart in the source; their conditions may differ. Where two headings read alike, the source gives them in different places. Marks after values point to notes of the source that are not given here.

How the values were obtained:
Format in all cases: in vivo
C57BL/6 mice [1] = assay: Number of autonomic activity of mice (YLS-1A autonomic activity recorder); details: for Effect on autonomic activity of mice (in words): 10 mg/kg intragastric, one week, compared with the solvent control group; for Number of Autonomic activity (time): 10 mg/kg intragastric once daily, counted 30 min after administration at 6th day
Procedure: 110 mice were randomly selected to observe the number of their autonomic activity. The mice was placed into the YLS-1A multi-functional mice autonomic activity recorder, and after 1 min of adaption, the mice's activity was counted within a time period from the end of 1st min to 4th min. 96 mice with the number of autonomic activity between 70˜140 were screened out, divided randomly into 8 groups, and intragastrically administrated with the drug compounds at a dose listed in Table 1, one time daily for 7 days consecutively. The solvent control group was administrated with 2% Tween-80 aqueous solution in the same volume. All mice were placed into the autonomic activity recorder 30 min after administration at 6th day. After 1 min of adaption, the mice's activity was counted within a time period from the end of 1st min to 4th min.
(§1) 130 mice were randomly selected to observe the number of their autonomic activity. The method was the same with that of Experiment 1. 108 mice with the number of autonomic activity between 70˜140 were screened out, divided randomly into 9 groups, and intragastrically administrated with the drug compounds at a dose listed in Table 2, one time daily for 7 days consecutively. The solvent control group was administrated with 2% Tween-80 aqueous solution in the same volume. 30 min after administration at 6th day, the number of the autonomic activity of each mouse was observed. 30 min after administration at 7th day, the immobility time in tail suspension test was observed. The method was the same with that in Experiment 1.

C57BL/6 mice [2] = assay: "Acquired despair" depression model of tail suspension test in mice; details: for Effect on immobility time in tail suspension test (in words): 10 mg/kg intragastric for 7 days, compared with the solvent control group
Procedure: 30 min after administration at 7th day, the mice was fixed on a sustainer with a rubberized cloth at 1 cm close to the end of the tail of mice, making the mice hanged upside down. The head of the mice was about 30 cm above the table and its sight was separated from the neighboring mouse with a plate. Usually, the mice might manage to struggle in hopes of overcoming the abnormal body position. […] The accumulated immobility time within 6 min of each mouse was observed, which was regarded as “despair time”.
as §1

C57BL/6 mice [3] = assay: Depression model test of anti-blepharoptosis caused by reserpine (akinesia, blepharoptosis, shell temperature); details: for Improving akinesia, blepharoptosis and shell temperature: ranking among the tested compounds (in words): within the experiment; for Degree of eye-closure: score 0-4 one hour after reserpine; for responders at 10 mg/kg: Mus musculus, po, 1 h, one hour after reserpine, 7.5 cm circle, 15-second observation, read-out: “out-of-circle” ratio; for Blepharoptosis, shell temperature and “out-of-circle” ratio compared with Compound I-1 (in words): compared with I-1, p<0.05, p<0.01
Procedure: 120 male C57BL/6 mice were randomly selected to observe the number of their autonomic activity. The mice was placed into the YLS-1A multi-functional mice autonomic activity recorder, and after 1 min of adaption, the activity of the mice was counted within a time period from the end of 1st min to 4th min. 96 mice with the number of autonomic activity between 70˜140 were screened out, divided randomly into 8 groups, and intragastrically administrated with the drug compounds at a dose listed in Table 3, one time daily for 7 days consecutively. The solvent control group was administrated with 2% Tween-80 aqueous solution in the same volume. Except the normal control group, 30 min after the last administration, each group was injected intraperitoneally with reserpine at a dose of 4 mg/kg. Next, akinesia, blepharoptosis and shell temperature were observed.
I Akinesia: one hour after intraperitoneal injection of reserpine, the mice were placed at the center of a circle with a diameter of 7.5 cm for a 15-second observation to calculate the “out-of-circle” ratio.
II Blepharoptosis: one hour after intraperitoneal injection of reserpine, the eye closure of mice was observed and scored by the following standard: eyelids open, 0; eyelids ¼ closed, 1; eyelids 2/4 closed, 2; eyelids ¾ closed, 3; eyelids closed completely, 4.
III Shell temperature: two hours after intraperitoneal injection of reserpine, the shell temperature of the abdomen of the mice was measured.
120 C57BL/6 mice were randomly selected to observe the number of their autonomic activity. The method was the same with that of Experiment 1. 100 mice with the number of autonomic activity between 70˜140 were screened out, divided randomly into 10 groups, and intragastrically administrated with the drug compounds at a dose listed in Table 4, one time daily for 7 days consecutively. The mice in the normal group and the solvent control group were administrated with 2% Tween-80 aqueous solution in the same volume. Except the normal control group, 30 min after the last administration, each group was injected intraperitoneally with reserpine at a dose of 4 mg/kg. Next, akinesia, blepharoptosis and shell temperature were observed. Observation method was the same with that of Experiment 1.

C57BL/6 mice [4] = assay: Forced swimming experiment in mice; details: for Immobility time in the forced swimming test in mice(s): 30 min after last administration, end of 2nd min to 6th min; for Effect on immobility time in the forced swimming test (in words): within the dosage range (5-10 mg/kg), compared with the solvent control group
Procedure: After 1˜2 days of adaptive feed, 80 male C57BL/6 mice, aged 6˜8 weeks and weighing 18˜22 g, were placed into the YLS-1A multi-functional mice autonomic activity recorder. After 1 min of adaption, the activity of the mice was counted within a time period from the end of 1st min to 4th min. 60 mice with the number of autonomic activity between 70˜140 were screened out, divided randomly into 6 groups, and intragastrically administrated with the drug compounds at a dose listed in Table 5, one time daily for 7 days consecutively. The solvent control group was administrated with 2% Tween-80 aqueous solution in the same volume. After the administration at 6th day, the mice were placed into a cylindrical aquarium with a water depth of 10 cm and 25° C. to force the mice to swim. After 15 min, the mice were taken out, dried and returned to the cage. 24 hours later, 30 min after the last intragastrical administration, the mice were placed into a glass bottle with a diameter of 10 cm, a height of 30 cm and a water depth of 10 cm, and the temperature of the water in the bottle was at 25° C. The mice were separated with an opaque partition, so as not to influence each other. After 2 min of adaption, an accumulated immobility time from the end of 2nd min to 6th min was recorded.

mice = assay: Anti-depression effect in the tested models (overall conclusion); details: in the tested model at the tested dose
From the text: Based on the aforesaid experiments, the following conclusion can be drawn: • 1.

[5] = 10 mg/kg, compared with I-1, p<0.05
[6] = 10 mg/kg intragastric 7 days, compared with the solvent control group
[7] = 10 mg/kg intragastric once daily for 7 days
[8] = 10 mg/kg, compared with the solvent control group
[9] = Experiment 2, 10 mg/kg intragastric 7 days, reserpine 4 mg/kg i.p., abdomen, two hours after reserpine, ±SD
[10] = Experiment 2, 10 mg/kg intragastric 7 days, reserpine 4 mg/kg i.p., ±SD
[11] = Experiment 2, 10 mg/kg intragastric 7 days, reserpine 4 mg/kg i.p.

SMILES: CC(C)CNC(=O)/C=C/c1cc2c(c(C(F)(F)F)c1)OCO2 [Compound I-5, N-isobutyl-5′-trifluoromethyl-3′,4′-methylenedioxy cinnamamide]
- Effect on autonomic activity of mice (in words) (C57BL/6 mice [1]): had no affect; also recorded: had no effect
- Number of Autonomic activity (time) (C57BL/6 mice [1]; Experiment 1, end of 1st min to 4th min): 94.75 ± 23.98 time
- Number of Autonomic activity (time) (C57BL/6 mice [1]; Experiment 2): 99.40 ± 19.67 time
- Effect on immobility time in tail suspension test (in words) (C57BL/6 mice [2]): remarkably reduce the immobility time; also recorded: reduce the immobility time of the mice in tail suspension test significantly; also recorded: significantly shorten the immobility time
- Effect on antagonizing immobility in tail suspension test compared with I-1 (in words) (C57BL/6 mice [2]; [5]): better effect
- Blepharoptosis, “out-of-circle” ratio and shell temperature after reserpine (effect in words) (C57BL/6 mice [3]; [6]): improved significantly; also recorded: antagonizing the decrease of shell temperature, akinesia and improving the degree of eye closure
- Degree of eye closure / blepharoptosis after reserpine compared with I-1 (in words) (C57BL/6 mice [3]; 10 mg/kg): reduced
- “out-of-circle” ratio after reserpine compared with I-1 (in words) (C57BL/6 mice [3]; [5]): increased markedly
- Improving akinesia, blepharoptosis and shell temperature: ranking among the tested compounds (in words) (C57BL/6 mice [3]; 10 mg/kg): best effect
- Change in the shell temperature (ΔT ° C.) (C57BL/6 mice [3]; Experiment 1, 10 mg/kg intragastric 7 days, reserpine 4 mg/kg i.p., abdomen, two hours after reserpine, ±SD): 1.32 ± 0.16 °C
- Degree of eye-closure (C57BL/6 mice [3]; Experiment 1, 10 mg/kg intragastric 7 days, reserpine 4 mg/kg i.p., ±SD): 0.42 ± 0.79**^ΔΔ
- responders at 10 mg/kg (C57BL/6 mice [3]; Experiment 1, 10 mg/kg intragastric 7 days, reserpine 4 mg/kg i.p.): 92%
- Immobility time in the forced swimming test in mice(s) (C57BL/6 mice [4]; 5 mg/kg (low dose) intragastric once daily for 7 days): 91.20 ± 43.09 s
- Immobility time in the forced swimming test in mice(s) (C57BL/6 mice [4]; [7]): 78.58 ± 35.70 s
- Dose dependence of the effect on immobility time in the forced swimming test (C57BL/6 mice [4]; 5 and 10 mg/kg): dose-dependent effect
- Effect on immobility time in the forced swimming test (in words) (C57BL/6 mice [4]): shortening the immobility time; also recorded: shorten the immobility time
- Anti-depression effect compared with the pharmacologic effect of I-1 (in words) (mice): increased to some degree

SMILES: O=C(/C=C/c1cc2c(c(C(F)(F)F)c1)OCO2)N1CCCCC1 [Compound I-10]
- Effect on autonomic activity of mice (in words) (C57BL/6 mice [1]): had no effect
- Number of Autonomic activity (time) (C57BL/6 mice [1]; Experiment 2): 95.30 ± 15.06 time
- Effect on immobility time in tail suspension test (in words) (C57BL/6 mice [2]): reduce the immobility time of the mice in tail suspension test significantly; also recorded: significantly shorten the immobility time
- Blepharoptosis, “out-of-circle” ratio and shell temperature after reserpine (effect in words) (C57BL/6 mice [3]; [6]): antagonizing the decrease of shell temperature, akinesia and improving the degree of eye closure
- Degree of eye closure / blepharoptosis after reserpine compared with I-1 (in words) (C57BL/6 mice [3]; 10 mg/kg): increased improvement
- Blepharoptosis after reserpine (effect in words) (C57BL/6 mice [3]; [8]): improve blepharoptosis of the mice significantly
- Shell temperature and “out-of-circle” ratio after reserpine (effect in words) (C57BL/6 mice [3]; [8]): to a certain degree but without statistically significant difference
- Change in the shell temperature (T ° C.) (C57BL/6 mice [3]; [9]): 27.15 ± 1.20 °C
- Degree of eye-closure (C57BL/6 mice [3]; [10]): 1.80 ± 1.32
- responders at 10 mg/kg (C57BL/6 mice [3]; [11]): 30%
- Immobility time in the forced swimming test in mice(s) (C57BL/6 mice [4]; [7]): 83.07 ± 31.03 s
- Effect on immobility time in the forced swimming test (in words) (C57BL/6 mice [4]): shortening the immobility time; also recorded: shorten the immobility time
- Anti-depression effect compared with the pharmacologic effect of I-1 (in words) (mice): increased to some degree

SMILES: CC(C)CNC(=O)CCc1cc2c(c(C(F)(F)F)c1)OCO2 [Compound I-11, N-isobutyl-3-(5′-trifluoromethyl-3′,4′-methylenedioxyphenyl)-propionamide]
- Effect on autonomic activity of mice (in words) (C57BL/6 mice [1]): had no effect
- Number of Autonomic activity (time) (C57BL/6 mice [1]; Experiment 2): 86.60 ± 23.08 time
- Effect on immobility time in tail suspension test (in words) (C57BL/6 mice [2]): reduce the immobility time of the mice in tail suspension test significantly; also recorded: significantly shorten the immobility time
- Blepharoptosis, “out-of-circle” ratio and shell temperature after reserpine (effect in words) (C57BL/6 mice [3]; [6]): remarkably improve; also recorded: antagonizing the decrease of shell temperature, akinesia and improving the degree of eye closure
- Blepharoptosis, shell temperature and “out-of-circle” ratio compared with Compound I-1 (in words) (C57BL/6 mice [3]; 10 mg/kg): significantly improved effect
- Improving akinesia, blepharoptosis and shell temperature: ranking among the tested compounds (in words) (C57BL/6 mice [3]; 10 mg/kg): better effects
- Change in the shell temperature (T ° C.) (C57BL/6 mice [3]; [9]): 30.20 ± 0.95 °C
- Degree of eye-closure (C57BL/6 mice [3]; [10]): 1.40 ± 0.97
- responders at 10 mg/kg (C57BL/6 mice [3]; [11]): 50%
- Anti-depression effect compared with the pharmacologic effect of I-1 (in words) (mice): increased to some degree

SMILES: CC(C)CNC(=O)c1cc2c(c(C(F)(F)F)c1)OCO2 [Compound I-12, N-isobutyl-5-trifluoromethyl-3,4-methylenedioxy benzamide]
- Effect on autonomic activity of mice (in words) (C57BL/6 mice [1]): had no effect
- Number of Autonomic activity (time) (C57BL/6 mice [1]; Experiment 2): 93.20 ± 19.54 time
- Effect on immobility time in tail suspension test (in words) (C57BL/6 mice [2]): reduce the immobility time of the mice in tail suspension test significantly; also recorded: significantly shorten the immobility time
- Blepharoptosis, “out-of-circle” ratio and shell temperature after reserpine (effect in words) (C57BL/6 mice [3]; [6]): remarkably improve; also recorded: antagonizing the decrease of shell temperature, akinesia and improving the degree of eye closure
- Blepharoptosis, shell temperature and “out-of-circle” ratio compared with Compound I-1 (in words) (C57BL/6 mice [3]; 10 mg/kg): significantly improved effect
- Improving akinesia, blepharoptosis and shell temperature: ranking among the tested compounds (in words) (C57BL/6 mice [3]; 10 mg/kg): better effects
- Change in the shell temperature (T ° C.) (C57BL/6 mice [3]; [9]): 30.65 ± 1.16 °C
- Degree of eye-closure (C57BL/6 mice [3]; [10]): 1.50 ± 1.18
- responders at 10 mg/kg (C57BL/6 mice [3]; [11]): 70%
- Anti-depression effect compared with the pharmacologic effect of I-1 (in words) (mice): increased to some degree
